Columns and labels:
Experiment in all cases: radiometric filter-binding kinase assay, Kinase HotSpot
Conditions in all cases: compound 0.5 µM; ATP 10 µM
PRKCZ (human) = PRKCZ (human) (UniProt Q05513)
MAP3K5 (human) = MAP3K5 (human) (UniProt Q99683)
STK4 (human) = STK4 (human) (UniProt Q13043)
PKN1 (human) = PKN1 (human) (UniProt Q16512)
MAPK1 (human) = MAPK1 (human) (UniProt P28482)
TGFBR1 (human) = TGFBR1 (human) (UniProt P36897)
MAP4K4 (human) = MAP4K4 (human) (UniProt O95819)
MAPK3 (human) = MAPK3 (human) (UniProt P27361)
Sequence of MAPK3 (human) (P27361 whole entry, looked up): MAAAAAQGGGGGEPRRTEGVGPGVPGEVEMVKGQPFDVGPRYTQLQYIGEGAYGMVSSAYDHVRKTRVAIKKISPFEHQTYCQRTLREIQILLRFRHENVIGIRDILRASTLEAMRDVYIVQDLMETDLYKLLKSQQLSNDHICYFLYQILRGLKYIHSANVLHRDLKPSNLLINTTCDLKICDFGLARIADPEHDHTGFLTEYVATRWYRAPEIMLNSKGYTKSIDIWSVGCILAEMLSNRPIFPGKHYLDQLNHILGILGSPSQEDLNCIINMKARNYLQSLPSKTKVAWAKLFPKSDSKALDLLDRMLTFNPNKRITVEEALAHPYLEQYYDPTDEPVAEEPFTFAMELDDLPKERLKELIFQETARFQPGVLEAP

CAMK2B (human) = CAMK2B (human) (UniProt Q13554)
RIPK2 (human) = RIPK2 (human) (UniProt O43353)
CDK5 CDK5R1 p35 (human) = CDK5 CDK5R1 p35 (human) (UniProt Q00535+Q15078)
AKT3 (human) = AKT3 (human) (UniProt Q9Y243)
DAPK1 (human) = DAPK1 (human) (UniProt P53355)
TEK (human) = TEK (human) (UniProt Q02763)
FES (human) = FES (human) (UniProt P07332)
Sequence of FES (human) (P07332 whole entry, looked up): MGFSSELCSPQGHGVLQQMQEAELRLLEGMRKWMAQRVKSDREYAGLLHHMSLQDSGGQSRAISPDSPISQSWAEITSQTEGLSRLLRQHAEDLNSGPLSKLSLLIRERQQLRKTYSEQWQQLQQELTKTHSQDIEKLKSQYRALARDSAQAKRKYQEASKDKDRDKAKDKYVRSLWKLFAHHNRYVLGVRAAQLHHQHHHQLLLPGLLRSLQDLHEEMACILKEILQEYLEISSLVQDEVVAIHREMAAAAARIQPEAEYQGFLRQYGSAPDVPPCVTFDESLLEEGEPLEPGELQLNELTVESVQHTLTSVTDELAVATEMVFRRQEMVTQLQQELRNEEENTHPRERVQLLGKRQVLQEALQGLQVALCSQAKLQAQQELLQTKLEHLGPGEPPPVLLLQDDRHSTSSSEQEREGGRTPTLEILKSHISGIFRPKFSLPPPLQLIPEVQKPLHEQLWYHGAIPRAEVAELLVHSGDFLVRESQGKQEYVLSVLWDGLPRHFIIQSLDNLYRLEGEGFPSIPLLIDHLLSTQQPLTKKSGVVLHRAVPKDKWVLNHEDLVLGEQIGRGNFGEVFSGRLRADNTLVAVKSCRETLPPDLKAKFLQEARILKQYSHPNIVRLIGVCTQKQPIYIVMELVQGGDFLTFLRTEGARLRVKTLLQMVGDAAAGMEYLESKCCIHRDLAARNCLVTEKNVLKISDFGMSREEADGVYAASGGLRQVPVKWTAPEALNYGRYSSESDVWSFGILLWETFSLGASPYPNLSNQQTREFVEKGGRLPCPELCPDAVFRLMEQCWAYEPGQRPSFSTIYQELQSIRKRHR

AURKC (human) = AURKC (human) (UniProt Q9UQB9)
PTK2 (human) = PTK2 (human) (UniProt Q05397)
AXL (human) = AXL (human) (UniProt P30530)
Sequence of AXL (human) (P30530 whole entry, looked up): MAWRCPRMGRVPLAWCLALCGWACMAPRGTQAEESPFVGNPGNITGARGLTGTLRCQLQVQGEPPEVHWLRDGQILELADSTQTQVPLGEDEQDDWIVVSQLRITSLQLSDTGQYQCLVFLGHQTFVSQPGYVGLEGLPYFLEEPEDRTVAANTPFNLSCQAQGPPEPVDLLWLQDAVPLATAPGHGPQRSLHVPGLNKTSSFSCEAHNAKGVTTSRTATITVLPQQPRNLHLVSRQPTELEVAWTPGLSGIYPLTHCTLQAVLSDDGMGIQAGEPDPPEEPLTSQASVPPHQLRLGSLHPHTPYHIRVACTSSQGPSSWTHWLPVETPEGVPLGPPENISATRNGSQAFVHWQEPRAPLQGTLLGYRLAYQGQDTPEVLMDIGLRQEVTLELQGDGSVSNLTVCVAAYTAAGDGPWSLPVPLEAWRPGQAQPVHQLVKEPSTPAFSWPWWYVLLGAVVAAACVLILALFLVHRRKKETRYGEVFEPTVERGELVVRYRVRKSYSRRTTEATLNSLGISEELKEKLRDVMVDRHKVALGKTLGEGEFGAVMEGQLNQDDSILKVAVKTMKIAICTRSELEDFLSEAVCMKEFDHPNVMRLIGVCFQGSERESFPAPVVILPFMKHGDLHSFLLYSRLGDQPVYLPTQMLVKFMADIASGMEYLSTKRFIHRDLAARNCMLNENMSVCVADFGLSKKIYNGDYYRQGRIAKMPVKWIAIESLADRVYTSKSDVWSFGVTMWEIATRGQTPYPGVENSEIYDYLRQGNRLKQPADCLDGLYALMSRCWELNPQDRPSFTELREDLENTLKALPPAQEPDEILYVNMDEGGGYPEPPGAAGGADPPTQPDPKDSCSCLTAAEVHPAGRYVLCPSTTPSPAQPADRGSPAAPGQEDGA

IRAK4 (human) = IRAK4 (human) (UniProt Q9NWZ3)
Sequence of IRAK4 (human) (Q9NWZ3 whole entry, looked up): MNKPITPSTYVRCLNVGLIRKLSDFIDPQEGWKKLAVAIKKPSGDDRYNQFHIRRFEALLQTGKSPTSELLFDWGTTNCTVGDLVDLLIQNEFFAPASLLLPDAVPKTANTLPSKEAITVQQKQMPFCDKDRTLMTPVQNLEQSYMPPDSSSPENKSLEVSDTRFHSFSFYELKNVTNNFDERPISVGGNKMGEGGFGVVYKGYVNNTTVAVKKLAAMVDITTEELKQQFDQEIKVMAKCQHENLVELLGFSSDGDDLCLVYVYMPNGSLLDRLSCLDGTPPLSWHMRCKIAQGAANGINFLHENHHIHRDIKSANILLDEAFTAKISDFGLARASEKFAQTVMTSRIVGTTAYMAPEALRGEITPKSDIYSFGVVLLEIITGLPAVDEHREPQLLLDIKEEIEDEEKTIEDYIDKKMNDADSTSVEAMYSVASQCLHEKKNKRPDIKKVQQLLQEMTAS

BRSK2 (human) = BRSK2 (human) (UniProt Q8IWQ3)
RAF1 (human) = RAF1 (human) (UniProt P04049)
CSNK2A2 (human) = CSNK2A2 (human) (UniProt P19784)
Sequence of CSNK2A2 (human) (P19784 whole entry, looked up): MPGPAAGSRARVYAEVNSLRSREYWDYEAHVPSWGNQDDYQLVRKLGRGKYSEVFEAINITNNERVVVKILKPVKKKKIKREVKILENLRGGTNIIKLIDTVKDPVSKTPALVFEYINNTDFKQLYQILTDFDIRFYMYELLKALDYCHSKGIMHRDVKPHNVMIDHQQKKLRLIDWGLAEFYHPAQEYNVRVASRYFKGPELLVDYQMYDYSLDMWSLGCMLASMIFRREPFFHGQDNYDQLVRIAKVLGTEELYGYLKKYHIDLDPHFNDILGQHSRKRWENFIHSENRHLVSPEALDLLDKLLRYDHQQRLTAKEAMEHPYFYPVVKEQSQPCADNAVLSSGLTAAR

CAMK1G (human) = CAMK1G (human) (UniProt Q96NX5)
MAP3K9 (human) = MAP3K9 (human) (UniProt P80192)
CDK9 CCNK (human) = CDK9 CCNK (human) (UniProt O75909+P50750)
STK33 (human) = STK33 (human) (UniProt Q9BYT3)
CAMK2D (human) = CAMK2D (human) (UniProt Q13557)
EPHA4 (human) = EPHA4 (human) (UniProt P54764)
TXK (human) = TXK (human) (UniProt P42681)
MAP3K7 TAB1 (human) = MAP3K7 TAB1 (human) (UniProt O43318+Q15750)
PHKG1 (human) = PHKG1 (human) (UniProt Q16816)
Sequence of PHKG1 (human) (Q16816 whole entry, looked up): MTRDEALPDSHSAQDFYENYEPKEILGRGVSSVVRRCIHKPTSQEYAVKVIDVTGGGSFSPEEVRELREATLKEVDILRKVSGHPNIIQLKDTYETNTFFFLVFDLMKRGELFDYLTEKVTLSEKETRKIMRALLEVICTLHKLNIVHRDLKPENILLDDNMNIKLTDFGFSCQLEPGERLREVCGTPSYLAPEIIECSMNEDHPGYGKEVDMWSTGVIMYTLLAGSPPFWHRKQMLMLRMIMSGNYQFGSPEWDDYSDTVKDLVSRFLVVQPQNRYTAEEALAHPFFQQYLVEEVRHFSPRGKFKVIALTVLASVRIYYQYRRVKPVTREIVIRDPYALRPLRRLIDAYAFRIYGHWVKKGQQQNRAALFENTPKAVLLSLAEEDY

RPS6KB1 (human) = RPS6KB1 (human) (UniProt P23443)
CDK6 CCND1 (human) = CDK6 CCND1 (human) (UniProt Q00534+P24385)
Sequence of CDK6 CCND1 (human) (P24385 whole entry, looked up): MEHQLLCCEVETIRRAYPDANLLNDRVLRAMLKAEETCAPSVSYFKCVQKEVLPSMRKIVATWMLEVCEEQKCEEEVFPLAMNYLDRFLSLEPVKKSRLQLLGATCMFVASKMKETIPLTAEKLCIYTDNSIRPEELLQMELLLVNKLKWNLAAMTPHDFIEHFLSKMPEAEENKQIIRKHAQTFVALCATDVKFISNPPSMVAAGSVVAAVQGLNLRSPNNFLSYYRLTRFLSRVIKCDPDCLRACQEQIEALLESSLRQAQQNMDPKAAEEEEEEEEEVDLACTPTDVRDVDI
Sequence of CDK6 CCND1 (human) (Q00534 whole entry, looked up): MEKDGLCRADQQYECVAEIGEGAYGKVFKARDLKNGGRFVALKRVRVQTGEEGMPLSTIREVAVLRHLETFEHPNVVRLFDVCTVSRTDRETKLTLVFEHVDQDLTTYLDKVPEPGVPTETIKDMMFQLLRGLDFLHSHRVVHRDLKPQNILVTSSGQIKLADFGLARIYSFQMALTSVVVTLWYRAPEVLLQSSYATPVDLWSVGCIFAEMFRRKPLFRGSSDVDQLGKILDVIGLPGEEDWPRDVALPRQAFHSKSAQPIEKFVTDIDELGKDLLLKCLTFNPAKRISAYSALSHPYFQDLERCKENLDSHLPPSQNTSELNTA

DYRK2 (human) = DYRK2 (human) (UniProt Q92630)
STK17A (human) = STK17A (human) (UniProt Q9UEE5)
CSK (human) = CSK (human) (UniProt P41240)
PIM2 (human) = PIM2 (human) (UniProt Q9P1W9)
CAMK1 (human) = CAMK1 (human) (UniProt Q14012)
Sequence of CAMK1 (human) (Q14012 whole entry, looked up): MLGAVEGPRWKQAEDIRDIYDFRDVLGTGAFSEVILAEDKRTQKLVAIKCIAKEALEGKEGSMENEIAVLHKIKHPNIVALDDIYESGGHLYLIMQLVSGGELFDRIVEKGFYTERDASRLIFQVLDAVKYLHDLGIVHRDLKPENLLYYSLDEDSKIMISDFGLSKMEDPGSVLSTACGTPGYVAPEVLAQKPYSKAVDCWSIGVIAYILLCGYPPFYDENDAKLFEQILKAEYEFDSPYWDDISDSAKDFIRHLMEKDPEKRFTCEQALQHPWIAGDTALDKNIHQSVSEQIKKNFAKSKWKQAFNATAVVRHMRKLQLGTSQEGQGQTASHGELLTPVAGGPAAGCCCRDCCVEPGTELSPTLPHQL

LTK (human) = LTK (human) (UniProt P29376)
CDK1 CCNB1 (human) = CDK1 CCNB1 (human) (UniProt P06493+P14635)
RPS6KA2 KD1 KD2 (human) = RPS6KA2 KD1 KD2 (human) (UniProt Q15349)

Sequence of TGFBR1 (human) (P36897 whole entry, looked up): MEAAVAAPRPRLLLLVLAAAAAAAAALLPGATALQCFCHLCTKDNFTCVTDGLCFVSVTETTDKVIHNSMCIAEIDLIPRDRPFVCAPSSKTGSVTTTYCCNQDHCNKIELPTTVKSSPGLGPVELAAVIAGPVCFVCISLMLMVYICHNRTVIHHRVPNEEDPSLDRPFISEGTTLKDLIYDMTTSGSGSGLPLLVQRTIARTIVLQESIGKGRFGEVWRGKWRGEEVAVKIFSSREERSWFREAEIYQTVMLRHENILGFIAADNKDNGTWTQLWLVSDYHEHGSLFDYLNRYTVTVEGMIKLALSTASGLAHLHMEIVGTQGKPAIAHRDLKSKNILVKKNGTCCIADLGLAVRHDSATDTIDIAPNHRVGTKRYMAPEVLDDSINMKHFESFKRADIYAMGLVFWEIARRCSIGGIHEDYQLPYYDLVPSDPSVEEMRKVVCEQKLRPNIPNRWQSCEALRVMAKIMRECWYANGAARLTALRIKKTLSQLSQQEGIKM

In the case of `Cc1cc(Nc2nc(-c3ccccc3)nc3ccccc23)n[nH]1`, the residual activity (PRKCZ (human)) is reported as 97.1%, the residual activity (MAP3K5 (human)) is reported as 99.5% and the residual activity (STK4 (human)) is reported as 58%. For the same compound, the residual activity (PKN1 (human)) was 89.9%, the residual activity (MAPK1 (human)) was 89.3% and the residual activity (TGFBR1 (human)) was 97.1%. The residual activity (MAP4K4 (human)) was 25.7%, the residual activity (MAPK3 (human)) was 80.8% and the residual activity (CAMK2B (human)) was 97.7%. It also gave a residual activity (RIPK2 (human)) of 70.4%, a residual activity (CDK5 CDK5R1 p35 (human)) of 77.1% and a residual activity (AKT3 (human)) of 95.5%. The residual activity (DAPK1 (human)) was 39.1%, the residual activity (TEK (human)) was 104% and the residual activity (FES (human)) was 94.7%. For the same compound, the residual activity (AURKC (human)) was 51.8%, the residual activity (PTK2 (human)) was 59.9% and the residual activity (AXL (human)) was 101%. It also gave a residual activity (IRAK4 (human)) of 93.2%, a residual activity (BRSK2 (human)) of 61.4% and a residual activity (RAF1 (human)) of 99.8%. It also gave a residual activity (CSNK2A2 (human)) of 15%, a residual activity (CAMK1G (human)) of 101% and a residual activity (MAP3K9 (human)) of 14.8%. For the same compound, the residual activity (CDK9 CCNK (human)) was 89.8%, the residual activity (STK33 (human)) was 44.7% and the residual activity (CAMK2D (human)) was 97.3%. The residual activity (EPHA4 (human)) was 70.7%, the residual activity (TXK (human)) was 45.3% and the residual activity (MAP3K7 TAB1 (human)) was 78.3%. For the same compound, the residual activity (PHKG1 (human)) was 71.7%, the residual activity (RPS6KB1 (human)) was 60.4% and the residual activity (CDK6 CCND1 (human)) was 85.5%. For the same compound, the residual activity (DYRK2 (human)) was 84%, the residual activity (STK17A (human)) was 81.3% and the residual activity (CSK (human)) was 98.4%. It also gave a residual activity (PIM2 (human)) of 92.7%, a residual activity (CAMK1 (human)) of 93.1% and a residual activity (LTK (human)) of 63.6%. The residual activity (CDK1 CCNB1 (human)) was 76% and the residual activity (RPS6KA2 KD1 KD2 (human)) was 50.7%.

`COc1cc2c(N3CCN(C(=O)Nc4ccc(OC(C)C)cc4)CC3)ncnc2cc1OCCCN1CCCCC1` gave a residual activity (PRKCZ (human)) of 103%, a residual activity (MAP3K5 (human)) of 96.6% and a residual activity (STK4 (human)) of 96.2%. The residual activity (PKN1 (human)) was 108%, the residual activity (MAPK1 (human)) was 87% and the residual activity (TGFBR1 (human)) was 102%. The residual activity (MAP4K4 (human)) was 96.6%, the residual activity (MAPK3 (human)) was 106% and the residual activity (CAMK2B (human)) was 99.9%. The residual activity (RIPK2 (human)) was 110%, the residual activity (CDK5 CDK5R1 p35 (human)) was 99.4% and the residual activity (AKT3 (human)) was 106%. The residual activity (DAPK1 (human)) was 103%, the residual activity (TEK (human)) was 99.6% and the residual activity (FES (human)) was 105%. The residual activity (AURKC (human)) was 97%, the residual activity (PTK2 (human)) was 101% and the residual activity (AXL (human)) was 99%. For the same compound, the residual activity (IRAK4 (human)) was 96%, the residual activity (BRSK2 (human)) was 98.6% and the residual activity (RAF1 (human)) was 96.7%. The residual activity (CSNK2A2 (human)) was 92.9%, the residual activity (CAMK1G (human)) was 94.6% and the residual activity (MAP3K9 (human)) was 108%. For the same compound, the residual activity (CDK9 CCNK (human)) was 107%, the residual activity (STK33 (human)) was 91.1% and the residual activity (CAMK2D (human)) was 106%. For the same compound, the residual activity (EPHA4 (human)) was 96.4%, the residual activity (TXK (human)) was 105% and the residual activity (MAP3K7 TAB1 (human)) was 91.8%. It also gave a residual activity (PHKG1 (human)) of 92.6%, a residual activity (RPS6KB1 (human)) of 107% and a residual activity (CDK6 CCND1 (human)) of 94.6%. It also gave a residual activity (DYRK2 (human)) of 107%, a residual activity (STK17A (human)) of 103% and a residual activity (CSK (human)) of 99.3%. It also gave a residual activity (PIM2 (human)) of 113%, a residual activity (CAMK1 (human)) of 101% and a residual activity (LTK (human)) of 101%. The residual activity (CDK1 CCNB1 (human)) was 97.1% and the residual activity (RPS6KA2 KD1 KD2 (human)) was 98.6%.
